The subject of series [1] is laser-induced choroidal neovascularization in the mouse. In words: Mouse laser-induced CNV, topical NSAID drops. Format: in vivo. The note with it: for CNV lesions at Bruch's membrane rupture sites vs vehicle: follow-up experiment. As to the method:
METHODS: Choroidal neovascularization was generated by modification of a previously described technique [Tobe, 1998 #448]. Briefly, 4 to 5 week old female C57BL/6J mice were anesthetized with ketamine hydrochloride (100 mg/kg body weight) and the pupils were dilated with 1% tropicamide. Three burns of 532 nm diode laser photocoagulation (75 μm spot size, 0.1 seconds duration, 120 mW) were delivered to each retina using the slit lamp delivery system of an OcuLight GL Photocoagulator (Iridex, Mountain View, Calif.) and a hand held cover slide as a contact lens. Burns were performed in the 9, 12, and 3 o'clock positions of the posterior pole of the retina. Production of a bubble at the time of laser, which indicates rupture of Bruch's membrane, is an important factor in obtaining CNV [Tobe, 1998 #448], so only burns in which a bubble was produced were included in the study. […] In some experiments, both eyes were treated with drug and these mice were compared to littermates in which both eyes were treated with vehicle. In other experiments, one eye was treated with drug and the fellow eye was treated with vehicle. Eyes were rapidly dissected for choroidal flat mounts or frozen in optimum cutting temperature embedding compound (OCT; Miles Diagnostics, Elkhart, Ind.).
The sizes of CNV lesions were measured in choroidal flat mounts (Edelman and Castro, 2000). Mice used for the flat mount technique were anesthetized and perfused with 1 ml of phosphate-buffered saline containing 50 mg/ml of fluorescein-labeled dextran (2×10^6 average mw, Sigma, St. Louis, Mo.) as previously described (Tobe et al., 1998a). The eyes were removed and fixed for 1 hour in 10% phosphate-buffered formalin. The cornea and lens were removed and the entire retina was carefully dissected from the eyecup. Radial cuts (4-7, average 5) were made from the edge to the equator and the eyecup was flat mounted in Aquamount with the sclera facing down. Flat mounts were examined by fluorescence microscopy on an Axioskop microscope (Zeiss, Thornwood, N.Y.) and images were digitized using a 3 color CCD video camera (IK-TU40A, Toshiba, Tokyo, Japan) and a frame grabber. Image-Pro Plus software (Media Cybernetics, Silver Spring, Md.) was used to measure the total area of hyperfluorescence associated with each burn, corresponding to the total fibrovascular scar. The areas within each eye were averaged to give one experimental value per eye for plotting the areas in the figures.
In some mice, the eyes were rapidly removed and frozen in optimum cutting temperature embedding compound (OCT; Miles Diagnostics, Elkhart, Ind.). Ten μm frozen sections were cut through entire lesions and the sections were histochemically stained with biotinylated Griffonia simplicifolia lectin B4 (GSA, Vector Laboratories, Burlingame, Calif.) which selectively binds to vascular cells. Slides were incubated in methanol/H2O2 for 10 minutes at 4° C., washed with 0.05 M Tris-buffered saline, pH 7.6 (TBS), and incubated for 30 minutes in 10% normal porcine serum. Slides were incubated 2 hours at room temperature with biotinylated GSA and after rinsing with 0.05M TBS, they were incubated with avidin coupled to peroxidase (Vector Laboratories) for 45 minutes at room temperature. The slides were developed with HistoMark Red (Kirkegaard and Perry, Cabin John, Md.) to give a red reaction product and counter stained with Contrast Blue (Kirkegaard and Perry).

For series [2], the system named is preretinal neovascularization in the mouse model of oxygen-induced retinopathy. In words: Mouse model of oxygen-induced ischemic retinopathy, topical drops. Format: in vivo. Particulars: for retinal (preretinal) neovascularization vs vehicle: P12-P17. As to the method:
METHODS: Ischemic retinopathy was produced in C57BL/6J mice by a method described by Smith et al [Smith, 1994 #50]. Seven-day-old (P7) mice and their mothers were placed in an airtight incubator and exposed to an atmosphere of 75±3% oxygen for 5 days. Incubator temperature was maintained at 23±2° C., and oxygen was measured every 8 hours with an oxygen analyzer. After 5 days, the mice were removed from the incubator, placed in room air, and drug treatment was begun. Mice were given one drop four times a day in masked fashion. At P17, after 5 days of treatment, mice were sacrificed, eyes were rapidly removed and frozen in OCT.
Ocular frozen sections (10 μm) were histochemically stained with GSA as described above except that diaminobenzidine was used to give a brown reaction product. Slides were counterstained with eosin, which stains the internal limiting membrane and mounted with Cytoseal. To perform quantitative assessments, 10 μm serial sections were cut through the entire eye starting with sections that included the iris root on one side of the eye and proceeding to the iris root on the other side. Every tenth section, roughly 100 μm apart, were stained with GSA, examined with an Axioskop microscope, and images were digitized using a 3 CCD color video camera and a frame grabber. Image-Pro Plus software was used to delineate GSA-stained cells on the surface of the retina and their area was measured. For plotting the area measurements for the figure, the mean of the measurements from each eye was used as a single experimental value.

In series [3] the test system is retinal vasculature and neuronal function in the STZ-diabetic rat. In words: STZ-diabetic rat, topical eyedrops for 2 months or 9 months. The series is classed as in vivo. The procedure: Methods. Streptozotocin (STZ)-induced diabetic rats were assigned to 3 groups (untreated control, Nepafenac eyedrops, and vehicle eyedrops) for comparison to nondiabetic controls. Eyedrops were administered in both eyes 4 times/day using both subacute (2 mos) or chronic dosing paradigms (9 mos). During the 2 month study, prostaglandin E2 (PGE2), cyclooxygenase (COX)-2, and VEGF were measured by immunoassay, superoxide generation was measured by bioluminescence, activities of caspases 3 and 6 were measured fluorimetrically, and nitric oxide (NO) was estimated from levels of nitrite plus nitrate. Moreover, retinal leukostasis was quantified after intravenous perfusion with FITC-concanavalin A. During the 9-month study, vascular lesions associated with diabetic retinopathy were quantitated after isolation of the retinal vasculature by the trypsin digest technique, and loss of cells in the ganglion cell layer was evaluated in retinal cross-sections. In the chronic dosing study, retinal function also was assessed by measuring electroretinograms (ERGs) under dark and light adapted conditions to evaluate rod and cone pathways, respectively. The impact of topical ocular administration on corneal protease activity was assessed with MMP mRNA analysis and zymography. The signals were imported into Matlab™ (Mathworks Inc.) for further processing and the oscillatory potentials (OP's) were isolated using a 9 pole Butterworth filter with 34 Hz cutoff frequency (unity gain above 40 Hz and >12 dB attenuation 0 to 30 Hz). To simplify the analysis of OP timing the summed latency was calculated for OP's 1-4 similar to Hancock and Kraft, where TTP=(t1+t2+t3+t4) and tx=the time to peak of OPx.

For a further series, the system named is VEGF mRNA. In words: Semi-quantitative RT-PCR of retinal VEGF mRNA in mice with ischemic retinopathy. Format: in vivo, mouse. The note with it: P12-P17. The procedure: Mice with ischemic retinopathy were treated with 0.1% or 0.5% Nepafenac drops or vehicle drops four times a day between P12 and P17 and then sacrificed and retinal RNA was isolated using the guanidine isothiocyanate method as described by Chomczynski and Sacchi [Chomczynski, 1987 #30]. Reverse transcription was carried out with 0.5 μg of total RNA, reverse transcriptase (SuperScript II, Life Technologies, Gaithersburg, Md.), and 5.0 μM oligo d(T) primer. Aliquots of the cDNAs were used for PCR amplification with primers specific for VEGF, (5′-TTACTGCTGTACCTCCACC-3′) and (5′-ACAGGACGGCTTGAAGATG-3′). Titrations were performed to insure that PCR reactions were carried out in the linear range of amplification. Mouse S16 ribosomal protein primers (5′-[…]-3′ and 5′-[…]-3′) were used to provide an internal control for the amount of template in the PCR reactions.

A further series relates to visual acuity. The note with it: Phase III, at 24 months, up to; cited from earlier work.
[4] abbreviates: 0.1% drops 4 times a day for 14 days.
Setting [5] is: eyedrops 4 times/day, 2 months of diabetes.

Entries after “also recorded” stand apart in the source; their conditions may differ.

For `O=C(O)Cc1ccccc1Nc1c(Cl)cccc1Cl` [diclofenac], the “CNV lesions at Bruch's membrane rupture sites vs vehicle” value in series [1] (setting [4]) was “no difference from vehicle-treated eyes”.

With `O=C(c1ccccc1)c1ccc2n1CCC2C(=O)O` (centres unmarked) [ketorolac tromethamine], the “size of CNV lesions vs vehicle” value in series [1] (0.5% drops 4 times a day for 1 week) is given as “no difference in the size of CNV lesions between the two groups”. Besides, the survival result in series [1] (0.5% drops or vehicle 4 times a day for 1 week) is given as “All mice survived”. Besides, the “CNV vs vehicle in surviving mice” value in series [1] (0.5% drops, 2 weeks, numbers insufficient for statistics) is “did not appear to have less CNV than mice treated with vehicle”. The mortality result in series [1] (0.5% drops, two weeks) is given as “high mortality”.

Turning to `NC(=O)Cc1cccc(C(=O)c2ccccc2)c1N` [nepafenac, 2-Amino-3-benzoyl-phenylacetamide], the “retinal (preretinal) neovascularization vs vehicle” value in series [2] (0.1% drops 4 times a day) and in series [2] (0.5% drops 4 times a day) was “significantly less retinal neovascularization; also recorded: significantly less preretinal NV” throughout. Also, the “inhibition of preretinal neovascularization” value in series [2] (topical, mouse OIR (FIG. 11)) is on record as “inhibits preretinal neovascularization”. The “protection against OP (oscillatory potential) delays, ERG” value in series [3] (0.3% topical, chronic dosing) was “completely protected”. Moreover, in series [3] (9 months of diabetes, STZ-diabetic rat (FIG. 12)), the “inhibition of morphologic vascular changes” value is recorded as “inhibits morphologic vascular changes present at 9 months of diabetes”. In addition, the “diabetes-induced activation of caspases 3 and 6 in retina” value in series [3] (setting [5]) was “partially inhibited”. Moreover, the “retinal VEGF or NO levels” value in series [3] (setting [5]) is on record as “no effect”. For the same molecule, the “TUNEL-positive capillary cells, acellular capillaries and pericyte ghosts” value in series [3] (eyedrops 4 times/day, chronic dosing (9 months)) is “significantly inhibited all of these retinal abnormalities”. The “corneal protease activity vs vehicle” value in series [3] (topical, after 9 months of diabetes) is “No significant changes”. In series [3] (topical, chronic dosing), the “OP summed latency (TTP) vs nondiabetic control animals” value is “statistically no different than nondiabetic control animals”. The “CNV lesions at Bruch's membrane rupture sites vs vehicle” value in series [1] (0.03% drops 4 times a day for 14 days) is “significantly smaller areas of CNV at Bruch's membrane rupture sites than did eyes treated with vehicle”; in series [1] (0.03% drops 4 times a day for 14 days, listed as nepafanac), “significantly smaller than those in eyes treated with vehicle”; in series [1] (setting [4]), “significantly smaller areas of CNV at Bruch's membrane rupture sites than did eyes treated with vehicle”; in series [1] (0.1% drops 4 times a day for 14 days, listed as nepafanac) it was “significantly smaller than those in eyes treated with vehicle”. In addition, the “CNV area vs vehicle” value in series [1] (0.1% drops 4 times a day, 2 weeks, first experiment) was “significantly smaller CNV lesions than treatment with vehicle”; in series [1] (0.5% drops 4 times a day, 2 weeks) it was “significantly smaller CNV lesions than treatment with vehicle”. The “area of CNV in treated eye compared to vehicle-treated fellow eye” value in series [1] (0.1% drops in one eye, vehicle in fellow eye) is on record as “significantly less”. Besides, the “inhibition of laser-induced choroidal neovascularization” value in series [1] (topical, mouse (FIG. 10)) is recorded as “inhibits laser-induced choroidal neovascularization”. For the same molecule, the “retinal VEGF mRNA vs vehicle” value with VEGF mRNA (0.1% drops 4 times a day) and with VEGF mRNA (0.5% drops 4 times a day) was “less VEGF mRNA than retinas from eyes treated with vehicle” in each case.

B1: ranibizumab (antibody, chains of the INN, looked up, V domains shown)
VH: EVQLVESGGGLVQPGGSLRLSCAASGYDFTHYGMNWVRQAPGKGLEWVGWINTYTGEPTYAADFKRRFTFSLDTSKSTAYLQMNSLRAEDTAVYYCAKYPYYYGTSHWYFDVWGQGTLVTVSS
VL: DIQLTQSPSSLSASVGDRVTITCSASQDISNYLNWYQQKPGKAPKVLIYFTSSLHSGVPSRFSGSGSGTDFTLTISSLQPEDFATYYCQQYSTVPWTFGQGTKVEIK
modifications: Fab
For the molecule B1, the “patients with improved visual acuity” value in the series on visual acuity is 35-40%.

The values above are taken from patent publication US20090105245A1, “METHODS FOR TREATING MACULAR EDEMA AND OCULAR ANGIOGENESIS USING AN ANTI-INFLAMMATORY AGENT AND A RECEPTOR TYROSINE KINASE INHIBITOR” (priority 2006, published 2009).
